# Where a SMILES comes first, the peptide text is derived from it. Bridges are numbered along the chain shown (N, C = ends). Roman numbers before positions name the chains, in order.
# Test system: IOBA-NHC cells
# Type: cell-based, human
# Conditions: 24 h
# Procedure: IOBA-NHC cells were cultured under standard conditions (humidified atmosphere of 5% CO2 at 37° C.) in DMEM/F12 supplemented with 1 μg/ml bovine pancreas insulin, 2 ng/ml mouse epidermal growth factor, 0.1 μg/ml cholera toxin, […] hydrocortisone, 10% fetal bovine serum (FBS), 50 UI/ml penicillin, and 50 UI/ml streptomycin. Cells from passages 50-80 were used in all experiments. Every day, normal culture development was observed by phase-contrast microscopy. Cells were removed by gentle trypsin incubation at confluence and counted. They were seeded into 96 well culture plates (Corning, Schiphol-Rijk, The Netherlands) for microtitration analysis of flow cytotoxicity assay (˜10,000 cells/well). Cultures were kept at 37° C. for 24 h. Subconfluent cells (culture surface covering nearly 70%) were then exposed to various peptide concentrations (0.22-225 μM). Cytotoxicity was measured periodically using MultiTox-Fluor Multiplex assay kit (Promega, Wis., USA) by measuring the AFC fluorescence (λex=485 and λem=520 nm).
row,SMILES,EC50 [µM]
1,"CC(C)[C@H](NC(=O)[C@H](CCCCN)NC(=O)[C@H](CCCNC(=N)N)NC(=O)CNC(=O)[C@@H](N)CCCNC(=N)N)C(=O)N[C@H](C(=O)N[C@@H](C)C(=O)N[C@@H](C)C(=O)NCCCC[C@H](NC(=O)[C@H](C)NC(=O)[C@H](C)NC(=O)[C@@H](NC(=O)[C@@H](NC(=O)[C@H](CCCCN)NC(=O)[C@H](CCCNC(=N)N)NC(=O)CNC(=O)[C@@H](N)CCCNC(=N)N)C(C)C)C(C)C)C(=O)NCCCC[C@H](NC(=O)[C@H](CCCCNC(=O)[C@H](C)NC(=O)[C@H](C)NC(=O)[C@@H](NC(=O)[C@@H](NC(=O)[C@H](CCCCN)NC(=O)[C@H](CCCNC(=N)N)NC(=O)CNC(=O)[C@@H](N)CCCNC(=N)N)C(C)C)C(C)C)NC(=O)[C@H](C)NC(=O)[C@H](C)NC(=O)[C@@H](NC(=O)[C@@H](NC(=O)[C@H](CCCCN)NC(=O)[C@H](CCCNC(=N)N)NC(=O)CNC(=O)[C@@H](N)CCCNC(=N)N)C(C)C)C(C)C)C(=O)N[C@@H](CCCCN)C(=O)O)C(C)C [[(SEQ ID NO: 11)2K]2KK] (I: H-RGRKVVAAKKK-OH / II: H-RGRKVVAAK / III: H-RGRKVVAA / IV: H-RGRKVVAA; amide I:9-IV:C, I:10-II:C, II:9-III:C; N-terminus and C-terminus assumed)",> 257
2,"C[C@H](NC(=O)CNC(=O)[C@@H](N)CCCNC(=N)N)C(=O)N[C@@H](C)C(=O)N[C@@H](C)C(=O)N[C@@H](C)C(=O)N[C@@H](CCCNC(=N)N)C(=O)N[C@@H](CCCNC(=N)N)C(=O)NCCCC[C@H](NC(=O)[C@H](CCCNC(=N)N)NC(=O)[C@H](CCCNC(=N)N)NC(=O)[C@H](C)NC(=O)[C@H](C)NC(=O)[C@H](C)NC(=O)[C@H](C)NC(=O)CNC(=O)[C@@H](N)CCCNC(=N)N)C(=O)NCCCC[C@H](NC(=O)[C@H](CCCCNC(=O)[C@H](CCCNC(=N)N)NC(=O)[C@H](CCCNC(=N)N)NC(=O)[C@H](C)NC(=O)[C@H](C)NC(=O)[C@H](C)NC(=O)[C@H](C)NC(=O)CNC(=O)[C@@H](N)CCCNC(=N)N)NC(=O)[C@H](CCCNC(=N)N)NC(=O)[C@H](CCCNC(=N)N)NC(=O)[C@H](C)NC(=O)[C@H](C)NC(=O)[C@H](C)NC(=O)[C@H](C)NC(=O)CNC(=O)[C@@H](N)CCCNC(=N)N)C(=O)N[C@@H](CCCCN)C(=O)O [[(SEQ ID NO: 17)2K]2KK] (I: H-RGAAAARRKKK-OH / II: H-RGAAAARRK / III: H-RGAAAARR / IV: H-RGAAAARR; amide I:9-IV:C, I:10-II:C, II:9-III:C; N-terminus and C-terminus assumed)",> 265
3,"CC(C)[C@H](NC(=O)[C@H](C)NC(=O)[C@H](C)NC(=O)[C@H](C)NC(=O)CNC(=O)[C@@H](N)CCCNC(=N)N)C(=O)N[C@@H](CCCNC(=N)N)C(=O)N[C@@H](CCCNC(=N)N)C(=O)NCCCC[C@H](NC(=O)[C@H](CCCNC(=N)N)NC(=O)[C@H](CCCNC(=N)N)NC(=O)[C@@H](NC(=O)[C@H](C)NC(=O)[C@H](C)NC(=O)[C@H](C)NC(=O)CNC(=O)[C@@H](N)CCCNC(=N)N)C(C)C)C(=O)NCCCC[C@H](NC(=O)[C@H](CCCCNC(=O)[C@H](CCCNC(=N)N)NC(=O)[C@H](CCCNC(=N)N)NC(=O)[C@@H](NC(=O)[C@H](C)NC(=O)[C@H](C)NC(=O)[C@H](C)NC(=O)CNC(=O)[C@@H](N)CCCNC(=N)N)C(C)C)NC(=O)[C@H](CCCNC(=N)N)NC(=O)[C@H](CCCNC(=N)N)NC(=O)[C@@H](NC(=O)[C@H](C)NC(=O)[C@H](C)NC(=O)[C@H](C)NC(=O)CNC(=O)[C@@H](N)CCCNC(=N)N)C(C)C)C(=O)N[C@@H](CCCCN)C(=O)O [[(SEQ ID NO: 14)2K]2KK] (I: H-RGAAAVRRKKK-OH / II: H-RGAAAVRRK / III: H-RGAAAVRR / IV: H-RGAAAVRR; amide I:9-IV:C, I:10-II:C, II:9-III:C; N-terminus and C-terminus assumed)",> 257
4,"C[C@H](NC(=O)[C@H](C)NC(=O)[C@H](CCCCN)NC(=O)[C@H](CCCNC(=N)N)NC(=O)CNC(=O)[C@@H](N)CCCNC(=N)N)C(=O)N[C@@H](CCCNC(=N)N)C(=O)N[C@@H](CCCNC(=N)N)C(=O)NCCCC[C@H](NC(=O)[C@H](CCCNC(=N)N)NC(=O)[C@H](CCCNC(=N)N)NC(=O)[C@H](C)NC(=O)[C@H](C)NC(=O)[C@H](CCCCN)NC(=O)[C@H](CCCNC(=N)N)NC(=O)CNC(=O)[C@@H](N)CCCNC(=N)N)C(=O)NCCCC[C@H](NC(=O)[C@H](CCCCNC(=O)[C@H](CCCNC(=N)N)NC(=O)[C@H](CCCNC(=N)N)NC(=O)[C@H](C)NC(=O)[C@H](C)NC(=O)[C@H](CCCCN)NC(=O)[C@H](CCCNC(=N)N)NC(=O)CNC(=O)[C@@H](N)CCCNC(=N)N)NC(=O)[C@H](CCCNC(=N)N)NC(=O)[C@H](CCCNC(=N)N)NC(=O)[C@H](C)NC(=O)[C@H](C)NC(=O)[C@H](CCCCN)NC(=O)[C@H](CCCNC(=N)N)NC(=O)CNC(=O)[C@@H](N)CCCNC(=N)N)C(=O)N[C@@H](CCCCN)C(=O)O [[(SEQ ID NO: 13)2K]2KK] (I: H-RGRKAARRKKK-OH / II: H-RGRKAARRK / III: H-RGRKAARR / IV: H-RGRKAARR; amide I:9-IV:C, I:10-II:C, II:9-III:C; N-terminus and C-terminus assumed)",46

# Other lines, results leading:
row,EC50 [µM],SMILES
1,> 231,"CC(C)[C@H](NC(=O)[C@H](C)NC(=O)[C@H](CCCNC(=N)N)NC(=O)CNC(=O)[C@@H](N)CCCNC(=N)N)C(=O)N[C@H](C(=O)N[C@@H](CCCNC(=N)N)C(=O)N[C@@H](CCCNC(=N)N)C(=O)NCCCC[C@H](NC(=O)[C@H](CCCNC(=N)N)NC(=O)[C@H](CCCNC(=N)N)NC(=O)[C@@H](NC(=O)[C@@H](NC(=O)[C@H](C)NC(=O)[C@H](CCCNC(=N)N)NC(=O)CNC(=O)[C@@H](N)CCCNC(=N)N)C(C)C)C(C)C)C(=O)NCCCC[C@H](NC(=O)[C@H](CCCCNC(=O)[C@H](CCCNC(=N)N)NC(=O)[C@H](CCCNC(=N)N)NC(=O)[C@@H](NC(=O)[C@@H](NC(=O)[C@H](C)NC(=O)[C@H](CCCNC(=N)N)NC(=O)CNC(=O)[C@@H](N)CCCNC(=N)N)C(C)C)C(C)C)NC(=O)[C@H](CCCNC(=N)N)NC(=O)[C@H](CCCNC(=N)N)NC(=O)[C@@H](NC(=O)[C@@H](NC(=O)[C@H](C)NC(=O)[C@H](CCCNC(=N)N)NC(=O)CNC(=O)[C@@H](N)CCCNC(=N)N)C(C)C)C(C)C)C(=O)N[C@@H](CCCCN)C(=O)O)C(C)C [Peptide B4010-K4A] (I: H-RGRAVVRRKKK-OH / II: H-RGRAVVRRK / III: H-RGRAVVRR / IV: H-RGRAVVRR; amide I:9-IV:C, I:10-II:C, II:9-III:C)"
2,> 225,"CC(C)[C@H](NC(=O)[C@H](CCCCN)NC(=O)[C@H](CCCNC(=N)N)NC(=O)CNC(=O)[C@@H](N)CCCNC(=N)N)C(=O)N[C@@H](C)C(=O)N[C@@H](CCCNC(=N)N)C(=O)N[C@@H](CCCNC(=N)N)C(=O)NCCCC[C@H](NC(=O)[C@H](CCCNC(=N)N)NC(=O)[C@H](CCCNC(=N)N)NC(=O)[C@H](C)NC(=O)[C@@H](NC(=O)[C@H](CCCCN)NC(=O)[C@H](CCCNC(=N)N)NC(=O)CNC(=O)[C@@H](N)CCCNC(=N)N)C(C)C)C(=O)NCCCC[C@H](NC(=O)[C@H](CCCCNC(=O)[C@H](CCCNC(=N)N)NC(=O)[C@H](CCCNC(=N)N)NC(=O)[C@H](C)NC(=O)[C@@H](NC(=O)[C@H](CCCCN)NC(=O)[C@H](CCCNC(=N)N)NC(=O)CNC(=O)[C@@H](N)CCCNC(=N)N)C(C)C)NC(=O)[C@H](CCCNC(=N)N)NC(=O)[C@H](CCCNC(=N)N)NC(=O)[C@H](C)NC(=O)[C@@H](NC(=O)[C@H](CCCCN)NC(=O)[C@H](CCCNC(=N)N)NC(=O)CNC(=O)[C@@H](N)CCCNC(=N)N)C(C)C)C(=O)N[C@@H](CCCCN)C(=O)O [Peptide B4010-V6A] (I: H-RGRKVARRKKK-OH / II: H-RGRKVARRK / III: H-RGRKVARR / IV: H-RGRKVARR; amide I:9-IV:C, I:10-II:C, II:9-III:C)"
3,> 237,"CC(C)[C@H](NC(=O)[C@H](CCCCN)NC(=O)[C@H](CCCNC(=N)N)NC(=O)CNC(=O)[C@@H](N)CCCNC(=N)N)C(=O)N[C@H](C(=O)N[C@@H](C)C(=O)N[C@@H](CCCNC(=N)N)C(=O)NCCCC[C@H](NC(=O)[C@H](CCCNC(=N)N)NC(=O)[C@H](C)NC(=O)[C@@H](NC(=O)[C@@H](NC(=O)[C@H](CCCCN)NC(=O)[C@H](CCCNC(=N)N)NC(=O)CNC(=O)[C@@H](N)CCCNC(=N)N)C(C)C)C(C)C)C(=O)NCCCC[C@H](NC(=O)[C@H](CCCCNC(=O)[C@H](CCCNC(=N)N)NC(=O)[C@H](C)NC(=O)[C@@H](NC(=O)[C@@H](NC(=O)[C@H](CCCCN)NC(=O)[C@H](CCCNC(=N)N)NC(=O)CNC(=O)[C@@H](N)CCCNC(=N)N)C(C)C)C(C)C)NC(=O)[C@H](CCCNC(=N)N)NC(=O)[C@H](C)NC(=O)[C@@H](NC(=O)[C@@H](NC(=O)[C@H](CCCCN)NC(=O)[C@H](CCCNC(=N)N)NC(=O)CNC(=O)[C@@H](N)CCCNC(=N)N)C(C)C)C(C)C)C(=O)N[C@@H](CCCCN)C(=O)O)C(C)C [Peptide B4010-R7A] (I: H-RGRKVVARKKK-OH / II: H-RGRKVVARK / III: H-RGRKVVAR / IV: H-RGRKVVAR; amide I:9-IV:C, I:10-II:C, II:9-III:C)"
